Reference: patent US12251387B2, “Substituted quinoxalines and benzo[c][1,2,5]oxadiazoles as DNA-PK inhibitors” (Vertex Pharmaceuticals Incorporated, priority 2013, dated 2025)

These compounds were tested against DNA-PK (Homo sapiens, UniProt P78527) (assay: DNA-PK Inhibition Assay (standard radiometric kinase assay, 33P-ATP, peptide substrate)). Settings: radiometric assay, approximately 6 nM DNA-PK, 100 μM ATP, 45 min; fit to competitive tight-binding inhibition; read-out: Ki for the inhibition of DNA-PK.
Format: biochemical
Experimental: Compounds were screened for their ability to inhibit DNA-PK kinase using a standard radiometric assay. Briefly, in this kinase assay the transfer of the terminal ^33P-phosphate in ^33P-ATP to a peptide substrate is interrogated. The assay was carried out in 384-well plates to a final volume of 50 μL per well containing approximately 6 nM DNA-PK, 50 mM HEPES (pH 7.5), 10 mM MgCl2, 25 mM NaCl, 0.01% BSA, 1 mM DTT, 10 μg/mL sheared double-stranded DNA (obtained from Sigma), 0.8 mg/mL DNA-PK peptide (Glu-Pro-Pro-Leu-Ser-Gln-Glu-Ala-Phe-Ala-Asp-Leu-Trp-Lys-Lys-Lys, obtained from American Peptide), and 100 μM ATP. Accordingly, compounds of the invention were dissolved in DMSO to make 10 mM initial stock solutions. Serial dilutions in DMSO were then made to obtain the final solutions for the assay. A 0.75 μL aliquot of DMSO or inhibitor in DMSO was added to each well, followed by the addition of ATP substrate solution containing ^33P-ATP (obtained from Perkin Elmer). The reaction was started by the addition of DNA-PK, peptide and ds-DNA. After 45 min, the reaction was quenched with 25 μL of 5% phosphoric acid. The reaction mixture was transferred to MultiScreen HTS 384-well PH plates (obtained from Millipore), allowed to bind for one hour, and washed three times with 1% phosphoric acid. Following the addition of 50 μL of Ultima Gold™ high efficiency scintillant (obtained from Perkin Elmer), the samples were counted in a Packard TopCount NXT Microplate Scintillation and Luminescence Counter (Packard BioScience). The Ki values were calculated using Microsoft Excel Solver macros to fit the data to the kinetic model for competitive tight-binding inhibition.

Ki, < 100 nM:
Cc1cnc(C)c(N[C@H]2CC[C@@H](Oc3cc(N4CCOCC4)cc4nccnc34)CC2)n1 [Compound 333], CC(C)(O)c1ncc(N[C@H]2CC[C@@H](Oc3cc(N4CCOCC4)cc4nccnc34)CC2)cn1 [Compound 341], CCOc1cnc(N[C@H]2CC[C@@H](Oc3cc(N4CCOCC4)cc4nccnc34)CC2)cn1 [Compound 334], Fc1cc(N[C@H]2CC[C@@H](Oc3cc(N4CCOCC4)cc4nccnc34)CC2)ccn1 [Compound 642], CNC(=O)c1ccc(N[C@H]2CC[C@@H](Oc3cc(N4CCOCC4)cc4nccnc34)CC2)cn1 [Compound 358], FC(F)(F)c1ccc(N[C@H]2CC[C@@H](Oc3cc(N4CCOCC4)cc4nccnc34)CC2)cn1 [Compound 427], CC(C)(O)CNc1ncnc(N[C@H]2CC[C@@H](Oc3cc(N4CCOCC4)cc4nccnc34)CC2)c1F [Compound 377], c1cc(OCCN2CCOCC2)nc(N[C@H]2CC[C@@H](Oc3cc(N4CCOCC4)cc4nccnc34)CC2)n1 [Compound 560], c1cnc2c(O[C@H]3CC[C@@H](Nc4ncc(-c5nnn[nH]5)cn4)CC3)cc(N3CCOCC3)cc2n1 [Compound 460], COCCOc1ccc(N[C@H]2CC[C@@H](Oc3cc(N4CCOCC4)cc4nccnc34)CC2)nc1 [Compound 625], Fc1c(NC2CCOC2)ncnc1N[C@H]1CC[C@@H](Oc2cc(N3CCOCC3)cc3nccnc23)CC1 (stereo partly shown) [Compound 379], c1cc(N[C@H]2CC[C@@H](Oc3cc(N4CCOCC4)cc4nccnc34)CC2)ncn1 [Compound 486], CNC(=O)c1cccc(N[C@H]2CC[C@@H](Oc3cc(N4CCOCC4)cc4nccnc34)CC2)n1 [Compound 406], Fc1ccc(N[C@H]2CC[C@@H](Oc3cc(N4CCOCC4)cc4nccnc34)CC2)nc1 [Compound 622], c1cnc2c(O[C@H]3CC[C@@H](Nc4ncnc5occc45)CC3)cc(N3CCOCC3)cc2n1 [Compound 518], Cc1ccncc1N[C@H]1CC[C@@H](Oc2cc(N3CCOCC3)cc3nccnc23)CC1 [Compound 443], Cc1ncc(N[C@H]2CC[C@@H](Oc3cc(N4CCOCC4)cc4nccnc34)CC2)c(C)n1 [Compound 449], c1cnc2c(O[C@H]3CC[C@@H](Nc4ncc5c(n4)OCC5)CC3)cc(N3CCOCC3)cc2n1 [Compound 621], c1nc(N[C@H]2CC[C@@H](Oc3cc(N4CCOCC4)cc4nccnc34)CC2)cc(OC2CNC2)n1 [Compound 480], CCN(CC)C(=O)N[C@H]1CC[C@@H](Oc2cc(N3CCOCC3)cc3nccnc23)CC1 [Compound 413], Oc1ncc(F)c(N[C@H]2CC[C@@H](Oc3cc(N4CCOCC4)cc4nccnc34)CC2)n1 [Compound 395], CN1CCN(c2cc(N[C@H]3CC[C@@H](Oc4cc(N5CCOCC5)cc5nccnc45)CC3)ncn2)CC1 [Compound 537], c1cc(N[C@H]2CC[C@@H](Oc3cc(N4CCOCC4)cc4nccnc34)CC2)n2nccc2c1 [Compound 580], NC(=O)c1cnc2cc(N3CCOCC3)cc(O[C@H]3CC[C@@H](Nc4ncccn4)CC3)c2n1 [Compound 606], COc1nc(N[C@H]2CC[C@@H](Oc3cc(N4CCOCC4)cc4nccnc34)CC2)c2cc[nH]c2n1 [Compound 383], Cc1cc(N[C@H]2CC[C@@H](Oc3cc(N4CCOCC4)cc4nccnc34)CC2)ccn1 [Compound 285], OC1(c2cnc(N[C@H]3CC[C@@H](Oc4cc(N5CCOCC5)cc5nccnc45)CC3)nc2)COC1 [Compound 610], CN(C)Cc1cnc(N[C@H]2CC[C@@H](Oc3cc(N4CCOCC4)cc4nccnc34)CC2)nc1 [Compound 529], CNc1nc(N[C@H]2CC[C@@H](Oc3cc(N4CCOCC4)cc4nccnc34)CC2)cc(=O)[nH]1 [Compound 400], FC(F)(F)c1cccnc1N[C@H]1CC[C@@H](Oc2cc(N3CCOCC3)cc3nccnc23)CC1 [Compound 593], CN1CCN(Cc2nccc(N[C@H]3CC[C@@H](Oc4cc(N5CCOCC5)cc5nccnc45)CC3)n2)CC1 [Compound 484], Cn1nc(N[C@H]2CC[C@@H](Oc3cc(N4CCOCC4)cc4nccnc34)CC2)ccc1=O [Compound 578], c1cc(N[C@H]2CC[C@@H](Oc3cc(N4CCOCC4)cc4nccnc34)CC2)nc(N2CCOCC2)n1 [Compound 534], CNC(=O)c1cc(N[C@H]2CC[C@@H](Oc3cc(C4=CCOCC4)cc4nccnc34)CC2)ncn1 [Compound 321], Cc1nc(N[C@H]2CC[C@@H](Oc3cc(N4CCOCC4)cc4nccnc34)CC2)c2occc2n1 [Compound 435], c1cnc2c(O[C@H]3CC[C@@H](Nc4cc5[nH]ccc5cn4)CC3)cc(N3CCOCC3)cc2n1 [Compound 540], Cc1ncnc(N[C@H]2CC[C@@H](Oc3cc(N4CCOCC4)cc4nccnc34)CC2)c1F [Compound 477], c1nc(N[C@H]2CC[C@@H](Oc3cc(N4CCOCC4)cc4nccnc34)CC2)c2c(n1)OCC2 [Compound 479], Cc1nccc(N[C@H]2CC[C@@H](Oc3cc(C4=CCOC4)cc4nccnc34)CC2)n1 [Compound 289], CN1CCN(c2cnc(N[C@H]3CC[C@@H](Oc4cc(N5CCOCC5)cc5nccnc45)CC3)nc2)CC1 [Compound 579], CCOc1nccc(N[C@H]2CC[C@@H](Oc3cc(N4CCOCC4)cc4nccnc34)CC2)n1 [Compound 279], CC(C)(C)NC(=O)N[C@H]1CC[C@@H](Oc2cc(N3CCOCC3)cc3nccnc23)CC1 [Compound 425], c1cnc2c(O[C@H]3CC[C@@H](Nc4ncc(OCCCN5CCCCC5)cn4)CC3)cc(N3CCOCC3)cc2n1 [Compound 507], c1cc(CN2CCCCC2)nc(N[C@H]2CC[C@@H](Oc3cc(N4CCOCC4)cc4nccnc34)CC2)n1 [Compound 504], O=C1Cc2cnc(N[C@H]3CC[C@@H](Oc4cc(N5CCOCC5)cc5nccnc45)CC3)nc2N1 [Compound 552], O=C(O)c1ccc(N[C@H]2CC[C@@H](Oc3cc(N4CCOCC4)cc4nccnc34)CC2)cn1 [Compound 393], c1cnc2c(O[C@H]3CC[C@@H](Nc4ncc(CCN5CCCC5)cn4)CC3)cc(N3CCOCC3)cc2n1 [Compound 432], CN1CC[C@@H](Nc2ncnc(N[C@H]3CC[C@@H](Oc4cc(N5CCOCC5)cc5nccnc45)CC3)c2F)C1 [Compound 327], COc1ncccc1N[C@H]1CC[C@@H](Oc2cc(N3CCOCC3)cc3nccnc23)CC1 [Compound 445], CN1Cc2c(N[C@H]3CC[C@@H](Oc4cc(N5CCOCC5)cc5nccnc45)CC3)cccc2C1=O [Compound 340], c1cnc2c(O[C@H]3CC[C@@H](Nc4ncc(OCCN5CCCC5)cn4)CC3)cc(N3CCOCC3)cc2n1 [Compound 509], c1cnc2c(O[C@H]3CC[C@@H](Nc4ncnc5[nH]ccc45)CC3)cc(N3CCOCC3)cc2n1 [Compound 515], CCc1ccnc(N[C@H]2CC[C@@H](Oc3cc(N4CCOCC4)cc4nccnc34)CC2)n1 [Compound 633], CN1CCN(c2nccc(N[C@H]3CC[C@@H](Oc4cc(N5CCOCC5)cc5nccnc45)CC3)n2)CC1 [Compound 535], COCCOc1cc(N[C@H]2CC[C@@H](Oc3cc(N4CCOCC4)cc4nccnc34)CC2)ncn1 [Compound 539], O=c1cc(N[C@H]2CC[C@@H](Oc3cc(N4CCOCC4)cc4nccnc34)CC2)cc[nH]1 [Compound 325], Cc1cc(N[C@H]2CC[C@@H](Oc3cc(N4CCOCC4)cc4nccnc34)CC2)n2ncnc2n1 [Compound 536], CCSc1nc(C)cc(N[C@H]2CC[C@@H](Oc3cc(N4CCOCC4)cc4nccnc34)CC2)n1 [Compound 635], CN1CCc2c(N[C@H]3CC[C@@H](Oc4cc(N5CCOCC5)cc5nccnc45)CC3)ncnc21 [Compound 473], Cc1nccnc1N[C@H]1CC[C@@H](Oc2cc(N3CCOCC3)cc3nccnc23)CC1 [Compound 335], c1cnc2c(O[C@H]3CC[C@@H](Nc4ccnc5[nH]ccc45)CC3)cc(N3CCOCC3)cc2n1 [Compound 385], COC(=O)c1ccc(N[C@H]2CC[C@@H](Oc3cc(N4CCOCC4)cc4nccnc34)CC2)cc1OC [Compound 394], Cc1nccc(N[C@H]2CC[C@@H](Oc3cc(N4CC5CCC(C4)O5)cc4nccnc34)CC2)n1 [Compound 297], CNC(=O)c1cc(C)nc(N[C@H]2CC[C@@H](Oc3cc(N4CCOCC4)cc4nccnc34)CC2)n1 [Compound 308]
